20 molecules from patent US8389557B2, “Triazole derivatives useful as Axl inhibitors” (Rigel Pharmaceuticals, Inc., priority 2005, dated 2013) can be followed below.

For this test, the target named is T1, Axl (Homo sapiens, UniProt P30530).
T1 construct: endogenous in cells; host or cells: HeLa cells
T1 sequence (P30530 26-894): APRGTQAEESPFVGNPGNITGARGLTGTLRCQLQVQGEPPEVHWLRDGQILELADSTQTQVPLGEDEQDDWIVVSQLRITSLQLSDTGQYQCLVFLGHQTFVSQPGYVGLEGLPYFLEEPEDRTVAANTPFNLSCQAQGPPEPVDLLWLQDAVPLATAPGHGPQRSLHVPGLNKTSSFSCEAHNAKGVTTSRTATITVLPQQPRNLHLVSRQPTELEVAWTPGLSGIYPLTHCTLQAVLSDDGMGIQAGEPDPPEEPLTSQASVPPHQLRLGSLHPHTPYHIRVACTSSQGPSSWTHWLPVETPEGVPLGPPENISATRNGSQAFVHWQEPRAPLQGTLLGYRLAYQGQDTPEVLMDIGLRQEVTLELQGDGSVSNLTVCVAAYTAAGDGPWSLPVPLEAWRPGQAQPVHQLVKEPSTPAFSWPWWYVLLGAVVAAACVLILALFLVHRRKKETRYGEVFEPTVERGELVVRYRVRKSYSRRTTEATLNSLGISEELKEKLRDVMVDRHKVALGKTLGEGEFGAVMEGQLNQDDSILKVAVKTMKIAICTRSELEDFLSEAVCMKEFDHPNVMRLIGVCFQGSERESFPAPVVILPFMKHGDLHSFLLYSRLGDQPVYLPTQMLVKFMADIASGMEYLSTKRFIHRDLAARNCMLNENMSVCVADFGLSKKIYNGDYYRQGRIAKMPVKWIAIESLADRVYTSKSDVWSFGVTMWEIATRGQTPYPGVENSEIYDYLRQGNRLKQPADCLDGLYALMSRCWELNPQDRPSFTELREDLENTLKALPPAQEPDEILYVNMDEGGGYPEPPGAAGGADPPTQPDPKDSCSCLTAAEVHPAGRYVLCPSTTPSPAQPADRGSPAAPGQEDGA
The test is described as follows: Phospho-Akt in-cell Western assay (inhibition of Axl activity). In kind it is cell-based. The protocol:
The compounds of the invention were tested in the following assay for their ability to inhibit Axl activity.
Phospho-Akt in-Cell Western Assay
• Cell culture plate: 96 well assay plate (Corning 3610), white, clear bottom, tissue-culture treated. • Cells: Hela cells. • Starvation medium: For Axl stimulation: 0.5% FCS (fetal calf serum) in DMEM, plus Axl/Fc (extracellular domain of AXL fused to immunoglobulin Fc region) (R&D, 154-AL) 500 ng/mL. • For EGF (epidermal growth factor) stimulation: 0.5% FCS in DMEM (Dulbecco's modified Eagles medium). • Poly-L-Lysine 0.01% solution (the working solution): 10 μg/ml, dilute In PBS (phosphate buffered saline). • Axl antibody cross-linking: • 1st: Mouse anti-Axl (R&D, MAB154). • 2nd: Biotin-SP-conjugated AffiniPure goat anti-mouse IgG (H+L) (Jackson ImmunoResearch #115-065-003). • Fixing buffer: 4% formaldehyde in PBS. • Wash buffer: 0.1% TritonX-100 in PBS. • Quenching buffer: 3% H2O2, 0.1% Azide in wash buffer, Azide and hydrogen peroxide (H2O2) are added fresh. • Blocking buffer: 5% BSA in TBST (tris buffered saline plus 0.1% Tween 20). • Primary antibody: Rabbit anti-human Phospho-Akt antibody (Cell Signaling 9271): 1×250 diluted in blocking buffer. • Secondary antibody: HRP (horse radish peroxidase)-conjugated Goat anti-Rabbit secondary, stock solution: Jackson ImmunoResearch (Goat anti-Rabbit HRP, #111-035-144) 1:1 diluted in glycerol, store at −20° C. The working solution: 1×2000 dilution of stock in blocking buffer. • Chemiluminescent working solution (Pierce, 37030): SuperSignal ELISA (enzyme linked immunosorbant assay) Pico Chemiluminescent substrate. • Crystal Violet solution: Stock: 2.5% Crystal violet in methanol, filtered and kept at ambient temperature. The working solution: dilute the stock 1:20 with PBS immediately before use. • 10% SDS: working solution: 5% SDS (sodium dodecylsulfate), diluted in PBS Methods: Day 1:
A 96 well TC (tissue culture treated) plate was coated with 10 μg/mL poly-L-Lysine at 37° C. for 30 min, washed twice with PBS, and air-dried for 5 minutes before cells were added. Hela cells were seeded at 10,000 cells/well and the cells were starved in 100 μL starvation medium containing Axl/Fc for 24 hrs.
The cells were pre-treated with test compounds by adding 100 μL of 2× test compound to the starvation medium on the cells. The cells were incubated at 37° C. for 1 hr before stimulation.
The cells were stimulated by Axl-antibody cross-linking as follows: A 5×1st/2nd Axl antibody mixture was made (37.5 μg/mL 1st/100 μg/mL 2nd) in starvation medium and nutated at 4° C. with thorough mixing for 1-2 hours for clustering. The resulting mix was warmed to 37° C. 50 μL of 5× Axl 1st/2nd of antibody cluster was added to the cells and the cells were incubated at 37° C. for 5 min.
After 5 minutes stimulation, the plate was flicked to remove medium and the plate was tapped onto paper towels. Formaldehyde (4.0% in PBS, 100 μL) was added to fix the cells and the cells were incubated at ambient temperature for 20 min without shaking.
The cells were washed with a plate washer buffer to remove the formaldehyde solution. The plate was flicked to removed excess wash buffer and tapped onto paper towels. Quenching buffer (100 μL) was added to each well and the cells were incubated at ambient temperature for 20 minutes without shaking.
The cells were washed with a plate washer buffer to remove the quenching buffer. Blocking buffer (100 μL) was added and the cells were incubated at ambient temperature for at least an hour with gentle shaking.
The cells were washed with a plate washer buffer and diluted primary antibody (50 μL) was added to each well (blocking buffer was added to the negative control wells instead). The plates were incubated overnight at 4° C. with gentle shaking.
The wash buffer was removed, diluted secondary antibody (100 μL) was added, and the cells were incubated at ambient temperature for 1 hour with gentle shaking. […]

Setting [1] is: inhibition of Axl activity, Table 1.
Setting [2] is: Table 2, Hela cells, Axl antibody cross-linking stimulation, phospho-Akt chemiluminescence.
Setting [3] is: inhibition of Axl activity, phospho-Akt in-cell Western assay, Table 1.
Setting [4] is: Table 4, Hela cells, Axl antibody cross-linking stimulation, phospho-Akt chemiluminescence.
Where [5] appears, read: Table 3, Hela cells, Axl antibody cross-linking stimulation, phospho-Akt chemiluminescence.

pIC50: −log10 of the molar value.

Usually pIC50 stands for the negative decadic logarithm of the IC50, by convention in mol/L. Higher therefore signals a low IC50. As to `Cc1ccc(C(=O)n2nc(Nc3cccc(C)c3)nc2N)cc1` [compound 133, 5-amino-3-[3-(methyl)phenylamino]-1-(4-(methyl)phenyl)carbonyl-1H-1,2,4-triazole], the pIC50 under setting [1] is 5.00 to 6.00.
Take `Cc1cccc(C(=O)n2nc(N)nc2Nc2cccc(OCC(=O)NC3CCCCC3)c2)c1` [compound 164, 3-amino-5-[3-[cyclohexylaminocarbonylmethoxy]phenylamino]-1-(3-(methyl)phenyl)carbonyl-1H-1,2,4-triazole]: under setting [2], the negative logarithm of the IC50 (pIC50) was less than 4.70.
Under setting [3], `CC(C)Oc1ccc(C(=O)n2nc(Nc3ccc(OCCN4CCCC4)c(F)c3)nc2N)cc1` [compound 307, 5-amino-1-(4-(iso-propoxy)phenyl)carbonyl-3-[3-fluoro-4-[2-(pyrrolidin-1-yl)ethoxy]phenylamino]-1H-1,2,4-triazole] had a pIC50 of more than 6.00.
The molecule `COc1cc(Nc2nc(N)n(C(=O)c3ccc(N4CCOCC4)cc3)n2)ccc1OCCN1CCCC1` [compound 343, 5-amino-1-(4-(morpholin-4-yl)phenyl)carbonyl-3-[3-methoxy-4-[2-(pyrrolidin-1-yl)ethoxy]phenylamino]-1H-1,2,4-triazole] showed a pIC50 under setting [3] of more than 6.00.
The molecule `CC(C)Oc1ccc(C(=O)n2nc(Nc3ccc(OC4CCCC4)cc3)nc2N)cc1` [compound 151, 5-amino-3-[4-(cyclopentoxy)phenylamino]-1-(4-(iso-propoxy)phenyl)carbonyl-1H-1,2,4-triazole] gave a pIC50 under setting [1] of less than 4.70.
Take `Nc1nc(Nc2ccc(OCCN3CC[C@H](F)C3)cc2)n(C(=O)c2ccc3c(c2)OCCO3)n1` [compound 387, 3-amino-1-(1,4-benzodioxan-6-yl)carbonyl-5-[4-[2-((S)-3-fluoropyrrolidin-1-yl)ethoxy]phenylamino]-1H-1,2,4-triazole]: the pIC50 under setting [4] was more than 6.00.
Under setting [3], `CN(C)c1cccc(C(=O)n2nc(Nc3ccc(OCCn4ccnc4)cc3)nc2N)c1` [compound 374, 5-amino-1-(3-(dimethylamino)phenyl)carbonyl-3-[4-[2-(imidazol-1-yl)ethoxy]phenylamino]-1H-1,2,4-triazole] gave a pIC50 of 5.00 to 6.00.
Take `CN1CCN(c2ccc(C(=O)n3nc(Nc4ccc(OCCN5CCCC5)cc4)nc3N)cc2)CC1` [compound 383, 5-amino-1-(4-(4-methylpiperazin-1-yl)phenyl)carbonyl-3-[4-[2-(pyrrolidin-1-yl)ethoxy]phenylamino]-1H-1,2,4-triazole]: under setting [3], the pIC50 is more than 6.00.
As to `Nc1nc(Nc2ccccc2)nn1C(=O)c1ccc(N2CCOCC2)cc1` [compound 335, 5-amino-1-(4-(morpholin-4-yl)phenyl)carbonyl-3-(phenylamino)-1H-1,2,4-triazole], the pIC50 under setting [3] is less than 4.70.
Under setting [1], `N#Cc1ccc(C(=O)n2nc(Nc3ccc4c(c3)OCCO4)nc2N)cc1` [compound 245, 5-amino-1-(4-cyanophenyl)carbonyl-3-(1,4-benzodioxan-6-yl)amino-1H-1,2,4-triazole] showed a pIC50 of less than 4.70.
In turn, `NC(=O)C1C2C=CC(C2)C1Nc1nc(N)nn1C(=O)c1ccc2cc[nH]c2c1` (centres unmarked) [compound 355, 3-amino-1-(1H-indol-6-yl)carbonyl-5-[(3-(aminocarbonyl)bicyclo[2.2.1]hept-5-en-2-yl)amino]-1H-1,2,4-triazole] had a pIC50 (Table 10, Hela cells, Axl antibody cross-linking stimulation, phospho-Akt chemiluminescence) of less than 4.70.
`CC(C)Oc1ccc(C(=O)n2nc(N)nc2Nc2ccc(N3CCCC3)cc2)cc1` [compound 294, 3-amino-1-(4-(iso-propoxy)phenyl)carbonyl-5-(4-(pyrrolidin-1-yl)phenylamino]-1H-1,2,4-triazole]: the pIC50 under setting [2] is less than 4.70.
For `Nc1nc(Nc2ccc(OCCN3CCCC3)cc2)nn1C(=O)c1ccc(N2CCOCC2)cc1` [compound 382, 5-amino-1-(4-(morpholin-4-yl)phenyl)carbonyl-3-[4-[2-(pyrrolidin-1-yl)ethoxy]phenylamino]-1H-1,2,4-triazole], the negative logarithm of the IC50 (pIC50) under setting [3] was more than 6.00.
On to `COc1ccc(NC(=O)n2nc(Nc3ccc(OCCN4CCCCC4)cc3)nc2N)cc1OC` [compound 43, 5-amino-N-(3,4-(dimethoxy)phenyl)-3-[4-[2-(piperidin-1-yl)ethoxy]phenylamino]-1H-1,2,4-triazole-1-carboxamide], for which the negative-log IC50 (pIC50) (Table 7, Hela cells, Axl antibody cross-linking stimulation, phospho-Akt chemiluminescence) was 5.00 to 6.00.
In the case of `Nc1nc(Nc2ccc(OCCN3CCCC3)cc2)nn1C(=O)C1CC2C=CC1C2` (centres unmarked) [compound 196, 5-amino-1-[2-(bicyclo[2.2.1]hept-5-ene)carbonyl]-3-[4-[2-(pyrrolidin-1-yl)ethoxy]phenylamino]-1H-1,2,4-triazole], the negative-log IC50 (pIC50) under setting [5] was less than 4.70.
In turn, `Nc1nc(Nc2ccc(OCCN3CCCC3)cc2)nn1C(=O)c1ccc2nc[nH]c2c1` [compound #25, 5-Amino-1-(benzimidazol-6-yl)carbonyl-3-[4-[2-(pyrrolidin-1-yl)ethoxy]phenylamino]-1H-1,2,4-triazole] gave a pIC50 under setting [5] of 5.00 to 6.00.
`CC(C)Oc1ccc(C(=O)n2nc(Nc3ccc(N4CCOCC4)cc3)nc2N)cc1` [compound 48, 5-amino-1-(4-(iso-propoxy)phenyl)carbonyl-3-(4-(morpholin-4-yl)phenylamino]-1H-1,2,4-triazole] gave a pIC50 under setting [1] of more than 6.00.
`CC(C)(C)Oc1cccc(C(=O)n2nc(Nc3ccc(OCCCN4CCCC4)cc3)nc2N)c1` [compound #24, 5-Amino-3-[4-[3-(pyrrolidin-1-yl)propoxy]phenylamino]-1-(3-(tert-butoxy)phenyl)carbonyl-1H-1,2,4-triazole] had a pIC50 under setting [3] of more than 6.00.
The molecule `CC(C)c1ccc(C(=O)n2nc(Nc3ccc(N4CCOCC4)cc3)nc2N)cc1` [compound 52, 5-amino-1-(4-(iso-propyl)phenyl)carbonyl-3-(4-(morpholin-4-yl)phenylamino]-1H-1,2,4-triazole] gave a negative-log IC50 (pIC50) under setting [1] of more than 6.00.
In turn, `Nc1nc(Nc2ccc(OCCN3CCCC3)cc2)n(C(=O)c2cc3ccccc3s2)n1` [compound 368, 3-amino-1-(benzo[b]thiophen-2-yl)carbonyl-5-[4-[2-(pyrrolidin-1-yl)ethoxy]phenylamino]-1H-1,2,4-triazole] gave a pIC50 under setting [4] of 5.00 to 6.00.
